This note sets out measurements from the supplement of paper PMC4862054.

Assay [1] relates to BT-474. The conditions noted are these: 72 h. The gist of the method:
(§1)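 Two sequential readouts followed a 72 h incubation of breast cancer cell lines with compound at 5 concentrations in 10-fold steps over a compound-specific 10,000-fold range: CellTox Green fluorescence (485/520 nm) for cell death, then CellTiter-Glo luminescence, after 10 min at room temperature, for viability. Each plate was normalised to 0.1 % DMSO and a positive kill control. Dose-response curves were fitted for EC50, censored at the top concentration.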

Assay [2] has as its system BT-549. The settings on record: 72 h. The gist of the method: as §1
For assay [3], the system named is CAL-120. The settings on record: 72 h. An outline of the steps: as §1
Assay [4] concerns CAL-51. The settings on record: 72 h. The gist of the method:
as §1

For assay [5], the system named is CAL-85-1. The settings on record: 72 h. The gist of the method:
as §1

For assay [6], the system named is HCC1937. The settings on record: 72 h. The gist of the method: as §1
Assay [7] deals with Hs578T. The settings on record: 72 h. The gist of the method:
as §1

Assay [8] deals with MCF-10A. The conditions noted are these: 72 h. The gist of the method: as §1
In assay [9] the test system is MDA-MB-231. The conditions noted are these: 72 h. The gist of the method: as §1
In assay [10] the test system is MDA-MB-436. The settings on record: 72 h. An outline of the steps:
as §1

Assay [11] has as its system MDA-MB-453. The conditions noted are these: 72 h. An outline of the steps:
as §1

Assay [12] relates to MDA-MB-468. The settings on record: 72 h. The gist of the method:
as §1

Assay [13] deals with SK-BR-3. The conditions noted are these: 72 h. An outline of the steps: as §1
Assay [14] relates to BT-474. Kind of assay: normalised viability (% of control), CellTiter-Blue; higher = more viable cells (about 100 = DMSO control). The settings on record: 10000 nM; incubation time: 72 h. The gist of the method: (§2)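 Breast cancer cell lines were treated for 72 h in 384-well format and measured by CellTiter-Blue fluorescence at 560/590 nm. Results were normalised per plate to vehicle (100) and a positive kill control (0). The entry is normalised viability at a single listed concentration of the series.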
(Alamar Blue is a resazurin reagent that responds to reducing activity.)

Assay [15] concerns CAL-120. The assay is described as above. The settings on record: 10000 nM; incubation time: 72 h. An outline of the steps: as §2
Assay [16] deals with CAL-51. The assay is described as above. The conditions noted are these: 100 nM; incubation time: 72 h. An outline of the steps:
as §2

Assay [17] has as its system CAL-85-1. The assay is described as above. The settings on record: 100 nM; incubation time: 72 h. An outline of the steps:
as §2

The subject of assay [18] is HCC1599. The description is as above. The settings on record: 10000 nM; incubation time: 72 h. The gist of the method:
as §2

The subject of assay [19] is HCC1937. Described as above. The conditions noted are these: 10000 nM; incubation time: 72 h. An outline of the steps:
as §2

In assay [20] the test system is Hs578T. The description is as above. The settings on record: 10000 nM; incubation time: 72 h. The gist of the method: as §2
In assay [21] the test system is MDA-MB-436. The assay is described as above. The conditions noted are these: 10000 nM; incubation time: 72 h. The gist of the method: as §2
Assay [22] has as its system MDA-MB-453. The description is as above. The settings on record: 100 nM; incubation time: 72 h. The gist of the method: as §2
In assay [23] the test system is MDA-MB-468. Described as above. The settings on record: 10000 nM; incubation time: 72 h. The gist of the method: as §2
Assay [24] concerns BT-474. The description is as above. The conditions noted are these: 100 nM; incubation time: 72 h. An outline of the steps:
as §2

In assay [25] the test system is CAL-51. The assay is described as above. The conditions noted are these: 10 nM; incubation time: 72 h. An outline of the steps: as §2
Assay [26] has as its system DU-4475. Described as above. The conditions noted are these: 10 nM; incubation time: 72 h. An outline of the steps:
as §2

For assay [27], the system named is HCC1143. The description is as above. The conditions noted are these: 100 nM; incubation time: 72 h. The gist of the method: as §2
The subject of assay [28] is HCC1599. The description is as above. The settings on record: 100 nM; incubation time: 72 h. The gist of the method:
as §2

Assay [29] has as its system HCC1937. Described as above. The settings on record: 100 nM; incubation time: 72 h. An outline of the steps: as §2
Assay [30] concerns HDQ-P1. The description is as above. The conditions noted are these: 10 nM; incubation time: 72 h. An outline of the steps:
as §2

Assay [31] concerns MDA-MB-231. Described as above. The conditions noted are these: 100 nM; incubation time: 72 h. The gist of the method: as §2
For assay [32], the system named is MDA-MB-468. Described as above. The conditions noted are these: 100 nM; incubation time: 72 h. The gist of the method:
as §2

The subject of assay [33] is CAL-148. Kind of assay: normalised viability (% of control), CellTiter-Blue; higher = more viable cells (about 100 = DMSO control). The conditions noted are these: 300 nM; incubation time: 72 h. The protocol:
(§3)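 DSRT, CellTiter-Blue viability, 72 h incubation. Signal is normalised to DMSO and benzethonium chloride controls. Value is the normalised response at dose 6.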

The test system of assay [34] is CAL-51. The description is as above. The conditions noted are these: 300 nM; incubation time: 72 h. The protocol:
as §3

Assay [35] concerns CAL-85-1. The assay is described as above. The settings on record: 300 nM; incubation time: 72 h. The protocol: as §3
Assay [36] deals with DU-4475. Described as above. The conditions noted are these: 300 nM; incubation time: 72 h. The protocol: as §3
Assay [37] concerns HDQ-P1. The description is as above. The settings on record: 300 nM; incubation time: 72 h. The protocol: as §3
For assay [38], the system named is MDA-MB-453. Described as above. The conditions noted are these: 300 nM; incubation time: 72 h. The protocol: as §3

Structures are written as SMILES. A value given as a limit tells only on which side of the number the result lay.

In the case of `CN1CCN(CCOc2cc(OC3CCOCC3)c3c(Nc4c(Cl)ccc5c4OCO5)ncnc3c2)CC1` [Saracatinib], the “EC50, CellTiter-Glo” value was 2010 nM in [1]; 1600 nM in [2]; > 10000 nM in [3]; 805 nM in assay [4]; 953 nM in assay [5]; > 10000 nM in [6]. Also, the “EC50, CellTiter-Glo” value was 2330 nM in assay [7]; 354 nM in assay [8]; 901 nM in assay [9]; > 10000 nM in [10]; 1360 nM in assay [11]; 1840 nM in assay [12]. Moreover, the “EC50, CellTiter-Glo” value in assay [13] was found to be 2120 nM. Further, the normalised viability in assay [14] came out at 42.4%; in assay [15], 61.1%; in assay [16], 99.1%; in assay [17] it was 98%; in assay [18], 83.7%; in assay [19], 116%. The normalised viability in assay [20] was found to be 69.7%; in [21] it was 72.1%; in assay [22] it was 105%; in [23], 57.8%; in assay [24], 105%; in assay [25], 106%. Also, the normalised viability in assay [26] is 105%; in assay [27] it was 84.3%; in [28], 108%; in assay [29], 96.2%; in assay [30], 104%; in assay [31], 76.5%. The normalised viability in assay [32] is 104%; in [33], 92.4%; in assay [34] it was 85.7%; in assay [35], 88.6%; in assay [36], 96.8%; in assay [37], 85.4%. The normalised viability in assay [38] stood at 104%.
`Cn1c(=O)n(-c2ccc(C(C)(C)C#N)cc2)c2c3cc(-c4cnc5ccccc5c4)ccc3ncc21` [Dactolisib]: the “EC50, CellTiter-Glo” value stood at 9.85 nM in assay [1]; 9.82 nM in assay [2]; 9.42 nM in [3]; 14.3 nM in assay [4]; 8.05 nM in assay [5]; 13 nM in assay [6]. In addition, the “EC50, CellTiter-Glo” value in assay [7] came to 13.6 nM; in assay [8], 28.5 nM; in assay [9], 11.8 nM; in assay [10], 3.68 nM; in assay [11], 12 nM; in assay [12], 23.1 nM. Also, the “EC50, CellTiter-Glo” value in assay [13] turned out to be 14 nM.
For `NS(=O)(=O)OC[C@@H]1C[C@@H](n2ccc3c(N[C@H]4CCc5ccccc54)ncnc32)C[C@@H]1O` [Pevonedistat], the “EC50, CellTiter-Glo” value in assay [1] is 769 nM; in [2] it was 168 nM; in assay [3] it was 448 nM; in assay [4], 91.2 nM; in [5], 191 nM; in assay [6], 2940 nM. The “EC50, CellTiter-Glo” value in assay [7] is 679 nM; in assay [9], 953 nM; in assay [10], 294 nM; in assay [11], 780 nM; in assay [12], 68.5 nM; in [13], 25.7 nM.
